13 molecules from US10093656B2, “Fused-ring or tricyclic aryl pyrimidine compound used as kinase inhibitor” (NANJING SANHOME PHARMACEUTICAL CO., LTD, priority 2015, dated 2018) can be followed below.

Each structure is given as a SMILES string.

One assay addresses T1, EGFR wild type (Homo sapiens, UniProt P00533).
T1 construct: purchased Life technology (Madison, Wis.)
Nature of the assay: Wild-type EGFR enzyme HTRF inhibition assay. Particulars: 25 μM ATP, read-out: EGFR WT IC50. The class given is biochemical. How it is done:
(§1) Enzyme: EGFR wild type, EGFR T790M/L858R, EGFR T790M and INSR were purchased from Life technology (Madison, Wis.), EGFR d746-750/T790M was purchased from Carna Biosciences (Japan).
(§2) HTRF Kit was purchased from Cis-Bio International which contained the Eu-labeled TK1 antibody, XL665 and biotin-labeled TK1 polypeptide substrates.
(§3) Detecting instrument: Envision (PerkinElmer).
(§4) The test compound was diluted 3-fold to obtain 10 doses of which the final concentration was from 300 nM to 0.015 nM.
Wild-Type EGFR Enzyme Reaction Mixture System:
0.05 nM Wild-type EGFR, 1 μM biotin-TK1 peptide, 25 μM ATP enzyme buffer, a total of which was 10 μL. The reaction plate was white Proxiplate 384-Plus plate (PerkinElmer) and the mixture was reacted at 23° C. for 60 minutes.
(§5) Reaction Detection: 10 μL of detection reagent containing Antibody 2 nM and XL665 62.5 nM was added, and the reagent was incubated at 23° C. for 60 minutes. The plates were read by Envision.
(§6) The reading is converted to the suppression rate (%) by the following formula […]/(Max-Min)*100%. IC50 Data was measured by four-parameter curve fitting (Model 205 in XLFITS, IDBS).
(In general: Time-resolved FRET reads energy transfer from a long-lived donor to a nearby acceptor.)

In a further assay the target is T2, EGFR T790M/L858R (Homo sapiens, UniProt P00533, L858R/T790M).
T2 construct: purchased Life technology (Madison, Wis.)
The assay is described as follows: EGFR T790M/L858R enzyme HTRF inhibition assay. Particulars: 20 μM ATP, read-out: EGFR L858R/T79M IC50. The class given is biochemical. How it is done:
as §1, §2, §3, §4
EGFR T790M/L858R Enzyme Reaction Mixture System:
0.04 nM EGFR T790M/L858R, 1 μM biotin-TK1 peptide, 20 μM ATP enzyme buffer, a total of which was 10 μL. The reaction plate was white Proxiplate 384-Plus plate (PerkinElmer) and the mixture was reacted at 23° C. for 60 minutes.
as §5, §6

A further assay deals with T3, EGFR d746-750/T790M (Homo sapiens, UniProt P00533, DEL746-750/T790M).
T3 construct: purchased Carna Biosciences (Japan)
The assay is described as follows: EGFR d746-750/T790M enzyme HTRF inhibition assay. Particulars: 40 μM ATP. It counts as biochemical. The method, then: as §1, §2, §3, §4
EGFR d746-750/T790M Enzyme Reaction Mixture System:
0.025 nM EGFR d746-750/T790M, 1 μM biotin-TK1 peptide, 40 μM ATP enzyme buffer, a total of which was 10 μL. The reaction plate was white Proxiplate 384-Plus plate (PerkinElmer) and the mixture was reacted at 23° C. for 60 minutes.
as §5, §6

The test system of assay [1] is NCI-H1975 cells EGFR L858R/T790M. Nature of the assay: NCI-H1975 cell viability assay (Cell Titer-Glo, 6 days). It counts as cell-based. Particulars: Homo sapiens, 144 h. The method, then: (§7) RPMI1640, fetal bovine serum, penicillin/streptomycin solution were purchased from Life Technology (Madison, Wis.). Cell Titer-Glo luminescent cell viability reagents were purchased from Promega (Madison, Wis.). A431 cell line and NCI-H1975 cell line were purchased from European Collection of Cell Cultures (ECACC). Plate Reader Instrument: Envision (PerkinElmer).
(§8) 384-Well plates, 300 of A431 cells and NCI-H1975 cells were inoculated per well, a volume of which was 45 μL. And the plates were incubated overnight in a CO2 incubator at 37° C. The test compound was diluted 3-fold to obtain 10 dose concentrations, the final concentrations of which were from 10 μM to 0.508 nM, two wells. The middle plates were filled with 49 μL of medium per well. 1 μL of compound in the gradient dilution compound plates was transferred to the middle plates and mixed well. And then 5 μL liquid in the middle plates was taken to the cell plates. The cells were incubated in a CO2 incubator for 6 days. After 6 days, 25 μL of detection reagents was added. And then the mixture was incubated at room temperature for 10 minutes and the plates were read by Envision.
(§9) The reading is converted to the suppression rate by the following formula (%) (Max-Sample)/(Max-Min)*100%. IC50 Data was measured by Four-parameter curve fitting (Model 205 in XLFIT5, IDBS).

The next assay has as its system A431 cells EGFR WT. The assay is described as follows: A431 cell viability assay (Cell Titer-Glo, 6 days). The class given is cell-based, human. Particulars: for IC50: Homo sapiens, A-431, 144 h, A431 cells, 6 days; for A431:NCI-H1975 (ratio): ratio of cell IC50 A431 to NCI-H1975. How it is done:
as §7, §8, §9
On the technique in general: In ATP-based viability assays light output follows the ATP content of the culture.

T3 sequence (P00533 with tags, fused parts or gaps DEL746-750/T790M limits assumed): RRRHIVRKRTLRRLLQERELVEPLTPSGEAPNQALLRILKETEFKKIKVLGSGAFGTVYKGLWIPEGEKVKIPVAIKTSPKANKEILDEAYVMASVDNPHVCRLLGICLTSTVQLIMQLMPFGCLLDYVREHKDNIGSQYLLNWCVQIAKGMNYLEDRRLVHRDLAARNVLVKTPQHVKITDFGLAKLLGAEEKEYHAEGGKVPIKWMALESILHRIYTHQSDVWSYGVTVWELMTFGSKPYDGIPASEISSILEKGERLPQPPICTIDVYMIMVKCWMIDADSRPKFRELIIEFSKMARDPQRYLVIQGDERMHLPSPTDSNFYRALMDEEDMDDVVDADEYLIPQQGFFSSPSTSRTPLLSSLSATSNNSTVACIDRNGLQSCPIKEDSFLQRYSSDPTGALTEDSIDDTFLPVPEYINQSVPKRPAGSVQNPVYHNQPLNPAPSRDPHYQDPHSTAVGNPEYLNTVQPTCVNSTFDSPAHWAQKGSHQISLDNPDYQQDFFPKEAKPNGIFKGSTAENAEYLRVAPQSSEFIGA
T2 sequence (P00533 25-1210 T790M/L858R): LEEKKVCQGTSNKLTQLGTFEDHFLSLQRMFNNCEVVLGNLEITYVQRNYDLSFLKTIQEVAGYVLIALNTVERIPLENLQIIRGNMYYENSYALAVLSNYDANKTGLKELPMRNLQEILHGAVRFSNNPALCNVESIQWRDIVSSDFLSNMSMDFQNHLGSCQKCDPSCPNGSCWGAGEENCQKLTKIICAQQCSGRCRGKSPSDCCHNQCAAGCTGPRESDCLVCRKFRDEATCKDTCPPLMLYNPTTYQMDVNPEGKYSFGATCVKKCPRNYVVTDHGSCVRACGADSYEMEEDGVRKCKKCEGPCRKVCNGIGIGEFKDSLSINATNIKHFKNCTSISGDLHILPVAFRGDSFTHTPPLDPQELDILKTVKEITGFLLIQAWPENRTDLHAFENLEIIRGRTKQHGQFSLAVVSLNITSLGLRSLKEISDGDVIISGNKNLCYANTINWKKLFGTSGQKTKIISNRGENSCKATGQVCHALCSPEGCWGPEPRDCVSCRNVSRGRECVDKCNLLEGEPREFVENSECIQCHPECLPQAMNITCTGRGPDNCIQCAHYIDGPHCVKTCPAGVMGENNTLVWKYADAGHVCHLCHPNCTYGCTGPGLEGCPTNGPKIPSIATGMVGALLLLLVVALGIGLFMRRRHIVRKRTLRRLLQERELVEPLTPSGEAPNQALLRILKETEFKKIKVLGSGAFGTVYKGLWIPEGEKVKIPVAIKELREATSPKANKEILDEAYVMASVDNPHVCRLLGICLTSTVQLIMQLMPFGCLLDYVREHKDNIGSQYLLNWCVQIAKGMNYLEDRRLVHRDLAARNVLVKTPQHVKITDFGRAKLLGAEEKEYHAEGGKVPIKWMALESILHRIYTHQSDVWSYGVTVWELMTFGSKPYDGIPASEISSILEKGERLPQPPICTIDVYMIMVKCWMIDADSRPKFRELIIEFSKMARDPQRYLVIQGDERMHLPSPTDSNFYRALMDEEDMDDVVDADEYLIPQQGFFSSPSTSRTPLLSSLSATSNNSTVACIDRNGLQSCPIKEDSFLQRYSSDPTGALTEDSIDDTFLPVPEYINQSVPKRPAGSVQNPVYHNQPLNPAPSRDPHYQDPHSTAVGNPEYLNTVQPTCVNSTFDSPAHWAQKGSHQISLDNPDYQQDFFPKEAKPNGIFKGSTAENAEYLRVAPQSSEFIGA
T1 sequence (P00533 25-1210): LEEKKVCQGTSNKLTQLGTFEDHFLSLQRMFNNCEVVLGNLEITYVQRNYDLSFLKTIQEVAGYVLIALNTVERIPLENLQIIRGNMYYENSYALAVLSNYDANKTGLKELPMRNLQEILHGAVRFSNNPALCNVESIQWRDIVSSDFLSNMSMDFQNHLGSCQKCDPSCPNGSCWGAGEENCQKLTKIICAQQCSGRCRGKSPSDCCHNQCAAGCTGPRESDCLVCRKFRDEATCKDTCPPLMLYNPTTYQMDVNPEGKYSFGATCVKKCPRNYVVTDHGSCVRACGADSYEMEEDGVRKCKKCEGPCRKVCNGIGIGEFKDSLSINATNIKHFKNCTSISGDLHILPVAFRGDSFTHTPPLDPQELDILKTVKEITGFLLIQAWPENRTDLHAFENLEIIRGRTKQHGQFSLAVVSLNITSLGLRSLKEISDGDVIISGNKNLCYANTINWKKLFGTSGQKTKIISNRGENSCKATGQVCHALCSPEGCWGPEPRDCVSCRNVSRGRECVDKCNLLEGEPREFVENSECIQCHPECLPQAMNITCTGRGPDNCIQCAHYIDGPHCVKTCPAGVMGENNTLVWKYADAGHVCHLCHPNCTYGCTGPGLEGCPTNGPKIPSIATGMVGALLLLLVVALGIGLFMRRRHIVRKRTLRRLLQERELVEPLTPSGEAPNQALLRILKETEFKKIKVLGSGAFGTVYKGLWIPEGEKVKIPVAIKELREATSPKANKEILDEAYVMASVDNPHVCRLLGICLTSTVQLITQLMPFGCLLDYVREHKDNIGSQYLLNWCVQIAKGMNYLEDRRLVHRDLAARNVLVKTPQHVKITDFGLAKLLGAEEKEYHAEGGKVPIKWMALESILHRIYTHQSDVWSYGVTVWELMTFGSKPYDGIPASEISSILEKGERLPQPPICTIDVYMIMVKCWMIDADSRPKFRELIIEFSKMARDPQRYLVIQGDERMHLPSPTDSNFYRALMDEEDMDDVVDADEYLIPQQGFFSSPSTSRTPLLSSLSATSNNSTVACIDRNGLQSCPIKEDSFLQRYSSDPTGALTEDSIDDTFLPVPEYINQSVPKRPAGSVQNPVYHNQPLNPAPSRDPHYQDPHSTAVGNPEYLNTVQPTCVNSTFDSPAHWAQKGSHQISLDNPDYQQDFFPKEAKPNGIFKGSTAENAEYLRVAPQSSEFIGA

As to `C=CC(=O)Nc1cc(Nc2nccc(-c3c4n(c5ccccc35)CCOC4)n2)c(OC)cc1N(C)CCN(CC)CC` [Embodiment 16, N-(2-((2-(Diethylamino)ethyl)(methyl)amino)-5-((4-(3,4-dihydro-1H-[1,4]oxazino[4,3-a]indol-10-yl)pyrimidin-2-yl)amino)-4-methoxyphenyl)acrylamide], the IC50 at EGFR wild type was 4 nM; on EGFR T790M/L858R, 0.29 nM; at EGFR d746-750/T790M, 0.33 nM; in assay [1] it was 17 nM; with A431 cells EGFR WT, 1060 nM. In the assay on A431 cells EGFR WT, the “A431:NCI-H1975 (ratio)” value is recorded as 63.
As for `C=CC(=O)Nc1cc(Nc2ncc(F)c(-c3c4n(c5ncccc35)CCOC4)n2)c(OC)cc1N(C)CCN(C)C` [Embodiment 39, N-(5-((4-(8,9-Dihydro-6H-pyrido[2,3]pyrrolo[4,5-α][1,4]oxazin-5-yl)-5-fluoropyrimidin-2-yl)amino)-2-((2-(dimethylamino)ethyl)(methyl)amino)-4-methoxyphenyl)acrylamide], the IC50 at EGFR wild type came to 5.3 nM; on EGFR T790M/L858R it was 0.5 nM; at EGFR d746-750/T790M, 0.6 nM; in assay [1], 288 nM; in the assay on A431 cells EGFR WT, 1570 nM. The “A431:NCI-H1975 (ratio)” value in the assay with A431 cells EGFR WT is recorded as 5.5.
On to `C=CC(=O)Nc1cc(Nc2ncc(F)c(-c3c4n(c5ccccc35)CCOC4)n2)c(OC)cc1N(C)CC(C)(C)N(C)C` [Embodiment 32, N-(5-((4-(3,4-Dihydro-1H-[1,4]oxazino[4,3-a]indol-10-yl)-5-fluoropyrimidin-2-yl)amino)-2-((2-(dimethylamino)-2-methylpropyl)(methyl)amino)-4-methoxyphenyl)acrylamide], for which the IC50 on EGFR wild type stood at 0.3 nM; on EGFR T790M/L858R it was 0.1 nM; against EGFR d746-750/T790M, 0.2 nM; in assay [1], 3 nM; in the assay with A431 cells EGFR WT it was 597 nM. In addition, the “A431:NCI-H1975 (ratio)” value in the assay with A431 cells EGFR WT is given as 199.
As for `C=CC(=O)Nc1cc(Nc2nccc(-c3c4n(c5ccc(F)cc35)CCC4)n2)c(OC)cc1N(C)CCN(C)C` [Embodiment 13, N-(2-((2-(Dimethylamino)ethyl)(methyl)amino)-5-((4-(7-fluoro-2,3-dihydro-1H-pyrrolo[1,2-a]indol-9-yl)pyrimidin-2-yl)amino)-4-methoxyphenyl) acrylamide], the IC50 on EGFR wild type turned out to be 0.65 nM; at EGFR T790M/L858R it was 0.24 nM; on EGFR d746-750/T790M, 0.18 nM; in assay [1] it was 5.4 nM; in the assay with A431 cells EGFR WT, 545 nM. Further, the “A431:NCI-H1975 (ratio)” value with A431 cells EGFR WT is on record as 101.0.
`C=CC(=O)Nc1cc(Nc2nccc(-c3c4n(c5ccccc35)CCC4)n2)c(OC)cc1CN1CCOCC1` [Embodiment 9, N-(5-((4-(2,3-Dihydro-1H-pyrrolo[1,2-a]indol-9-yl)pyrimidin-2-yl)amino)-4-methoxy-2-(morpholinomethyl)phenyl)acrylamide]: the IC50 was determined as 6.28 nM on EGFR wild type; 0.75 nM at EGFR T790M/L858R; 0.51 nM on EGFR d746-750/T790M; 111 nM in assay [1]; 1440 nM in the assay with A431 cells EGFR WT. In the assay with A431 cells EGFR WT, the “A431:NCI-H1975 (ratio)” value was determined as 13.0.
Take `C=CC(=O)Nc1cc(Nc2nccc(-c3c4n(c5ccccc35)CCC4)n2)c(OC)cc1C#CCN(C)C` [Embodiment 8, N-(5-((4-(2,3-Dihydro-1H-pyrrolo[1,2-a]indol-9-yl)pyrimidin-2-yl)amino)-2-(3-(dimethylamino)prop-1-yn-1-yl)-4-methoxyphenyl)acrylamide]: the IC50 on EGFR wild type turned out to be 5.22 nM; on EGFR T790M/L858R it was 0.91 nM; at EGFR d746-750/T790M it was 0.64 nM; in assay [1], 474 nM; with A431 cells EGFR WT, 5460 nM. For the same molecule, the “A431:NCI-H1975 (ratio)” value with A431 cells EGFR WT stood at 11.5.
With `C=CC(=O)Nc1cc(Nc2nccc(-c3c4n(c5ccccc35)CCOC4)n2)c(OC(C)C)cc1N(C)CCN(C)C` [Embodiment 29, N-(5-((4-(3,4-Dihydro-1H-[1,4]oxazino[4,3-a]indol-10-yl)pyrimidin-2-yl)amino)-2-((2-(dimethylamino)ethyl)(methyl)amino)-4-isopropoxyphenyl)acrylamide], the IC50 on EGFR wild type stood at 5.1 nM; at EGFR T790M/L858R, 0.38 nM; against EGFR d746-750/T790M it was 0.38 nM; in assay [1], 25 nM; in the assay with A431 cells EGFR WT, 1180 nM. Further, in the assay on A431 cells EGFR WT, the “A431:NCI-H1975 (ratio)” value was 47.
As to `C=CC(=O)Nc1cc(Nc2nccc(-c3c4n(c5ccccc35)CCC4)n2)c(OC)cc1N(C)C(C)CN(C)C` (stereo not drawn) [Embodiment 11, N-(5-((4-(2,3-Dihydro-1H-pyrrolo[1,2-a]indol-9-yl)pyrimidin-2-yl)amino)-2-((1-(dimethylamino)propan-2-yl)(methyl)amino)-4-methoxyphenyl)acrylamide], the IC50 at EGFR wild type worked out at 0.53 nM; on EGFR T790M/L858R it was 0.23 nM; against EGFR d746-750/T790M, 0.2 nM; in assay [1] it was 6.1 nM; in the assay on A431 cells EGFR WT it was 270 nM. For the same molecule, the “A431:NCI-H1975 (ratio)” value with A431 cells EGFR WT came out at 44.3.
With `C=CC(=O)Nc1cc(Nc2ncc(F)c(-c3c4n(c5ccccc35)C(C)(C)COC4)n2)c(OC)cc1N(C)CCN(C)C.CS(=O)(=O)O` [Embodiment 36, N-(5-((4-(4,4-Dimethyl-3,4-dihydro-1H-[1,4]oxazino[4,3-a]indol-10-yl)-5-fluoropyrimidin-2-yl)amino)-2-((2-(dimethylamino)ethyl)(methyl)amino)-4-methoxyphenyl)acrylamide methanesulfonate], the IC50 was found to be 2.7 nM at EGFR wild type; 1.3 nM on EGFR T790M/L858R; 1.3 nM against EGFR d746-750/T790M; 175 nM in assay [1]; 438 nM with A431 cells EGFR WT. Besides, the “A431:NCI-H1975 (ratio)” value in the assay on A431 cells EGFR WT is recorded as 2.5.
Consider `C=CC(=O)Nc1cc(Nc2nccc(-c3c4n(c5ccccc35)CCOC4)n2)c(OC)cc1N(C)CCNC(C)C` [Embodiment 23, N-(5-((4-(3,4-Dihydro-1H-[1,4]oxazino[4,3-a]indol-10-yl)pyrimidin-2-yl)amino)-2-((2-(isopropylamino)ethyl)(methyl)amino)-4-methoxyphenyl)acrylamide], for which the IC50 in assay [1] amounted to 63 nM. Moreover, in the assay on A431 cells EGFR WT, the IC50 is 1570 nM and the “A431:NCI-H1975 (ratio)” value was found to be 25.
Molecule `C=CC(=O)Nc1cc(Nc2nccc(-c3c4n(c5ccccc35)CCOC4)n2)c(OC)cc1N(C)CCN1CCC1` [Embodiment 26, N-(2-((2-(Azetidin-1-yl)ethyl)(methyl)amino)-5-((4-(3,4-dihydro-1H-[1,4]oxazino[4,3-a]indol-10-yl)pyrimidin-2-yl)amino)-4-methoxyphenyl)acrylamide] came in with an IC50 in assay [1] of 102 nM. Further, in the assay on A431 cells EGFR WT, the IC50 is 2210 nM and the “A431:NCI-H1975 (ratio)” value is 22.
For `C=CC(=O)Nc1cc(Nc2nccc(-c3c4n(c5ccccc35)CCOC4)n2)c(OC)cc1N(CC)CCNCC` [Embodiment 21, N-(5-((4-(3,4-Dihydro-1H-[1,4]oxazino[4,3-a]indol-10-yl)pyrimidin-2-yl)amino)-2-(ethyl(2-(ethylamino)ethyl)amino)-4-methoxyphenyl)acrylamide] the same measures were 50 nM, 1440 nM and 29.
In turn, `C=CC(=O)Nc1cc(Nc2nccc(-c3c4n(c5ccccc35)CCOC4)n2)c(OC)cc1N(CC)CCN(C)CC` [Embodiment 22, N-(5-((4-(3,4-Dihydro-1H-[1,4]oxazino[4,3-a]indol-10-yl)pyrimidin-2-yl)amino)-2-(ethyl(2-(ethyl(methyl)amino)ethyl)amino)-4-methoxyphenyl)acrylamide] yielded an IC50 in assay [1] of 50.4 nM. In addition, in the assay with A431 cells EGFR WT, the IC50 was determined as 1330 nM and the “A431:NCI-H1975 (ratio)” value is recorded as 26.
